Numbers after ± are expanded uncertainties.
Settings: Liquid
[1] = 303.15 K, Closed cell (Static) method
[2] = 353.15 K, Closed cell (Static) method
[3] = 373.1 K, Closed cell (Static) method
[4] = 413.15 K, Closed cell (Static) method

Row | vapor or sublimation pressure [3] [kPa] | vapor or sublimation pressure [4] [kPa] | SMILES | also measured
1 |  |  | ClCCCl [1,2-dichloroethane] | vapor or sublimation pressure [1]: 13.28 ± 1 kPa; vapor or sublimation pressure [2]: 90.9 ± 1 kPa
2 | 103.49 ± 1.1 | 282.8 ± 1.4 | CC(C)CC(C)(C)C [2,2,4-trimethylpentane] | 
3 | 33.26 ± 1 | 111.4 ± 1.1 | CCc1cccs1 [2-ethylthiophene] | 
4 | 69.87 ± 1.1 | 209.8 ± 1.2 | Cc1cccs1 [2-methylthiophene] | 
5 |  |  | Cl/C=C/Cl [(E)-1,2-dichloroethene] | vapor or sublimation pressure [1]: 53.33 ± 1.1 kPa; vapor or sublimation pressure [2]: 269.9 ± 1.3 kPa
6 |  |  | N#CC1CC1 [cyclopropanecarbonitrile] | vapor or sublimation pressure (373.1 K): 35.2 ± 1 kPa; vapor or sublimation pressure (408.15 K): 102.2 ± 1.2 kPa
7 | 53.82 ± 1.1 | 165.9 ± 1.2 | C=CCCCCCC [oct-1-ene] | 
8 |  |  | O [water] | vapor or sublimation pressure (373.1 K): 101.4 ± 1.3 kPa; vapor or sublimation pressure (408.15 K): 312.4 ± 2.1 kPa
